Data on 1 compound can be found in article PMC5678437, “A new antagonist for CCR4 attenuates allergic lung inflammation in a mouse model of asthma” (Scientific Reports, 2017).

Holding throughout (type): cell-based
Data set [1] deals with T1, CCR3 (Homo sapiens, UniProt P51677).
T1 sequence (P51677 2-355 limits assumed): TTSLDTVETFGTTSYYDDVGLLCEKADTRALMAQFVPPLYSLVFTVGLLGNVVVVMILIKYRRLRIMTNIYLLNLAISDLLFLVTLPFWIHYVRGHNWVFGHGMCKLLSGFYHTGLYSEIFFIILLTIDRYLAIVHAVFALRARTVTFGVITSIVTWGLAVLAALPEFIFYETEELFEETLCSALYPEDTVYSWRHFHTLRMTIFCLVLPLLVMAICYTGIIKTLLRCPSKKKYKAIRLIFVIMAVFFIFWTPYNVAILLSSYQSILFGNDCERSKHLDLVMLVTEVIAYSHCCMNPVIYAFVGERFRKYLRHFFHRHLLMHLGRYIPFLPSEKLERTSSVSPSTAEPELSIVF
As to the kind of experiment: Chemotaxis inhibition assay for receptor specificity, HEK293-CCR3. To be noted: 0.2, 1, 5, 25 μM, 30 min pretreatment. On the procedure:
(§1) HEK293 cells were transfected with different chemokine receptors. The corresponding chemokines of different receptors were placed in the lower chambers. The transfected cells were pretreated with different concentrations of Compound 8a or 1‰ DMSO for 30 min at a density of 1 × 10^6 cells/ml and added to the upper chambers, the final concentration of the compound is: 0.2 μM, 1 μM, 5 μM, and 25 μM, respectively.

In data set [2] the target is T2, CCR2B (Homo sapiens, UniProt P41597).
T2 construct: expressed in transfected cells; host or cells: HEK293, pcDB-CCR2B plasmid made in the authors' laboratory
T2 sequence (P41597 1-360 isoform P41597-2): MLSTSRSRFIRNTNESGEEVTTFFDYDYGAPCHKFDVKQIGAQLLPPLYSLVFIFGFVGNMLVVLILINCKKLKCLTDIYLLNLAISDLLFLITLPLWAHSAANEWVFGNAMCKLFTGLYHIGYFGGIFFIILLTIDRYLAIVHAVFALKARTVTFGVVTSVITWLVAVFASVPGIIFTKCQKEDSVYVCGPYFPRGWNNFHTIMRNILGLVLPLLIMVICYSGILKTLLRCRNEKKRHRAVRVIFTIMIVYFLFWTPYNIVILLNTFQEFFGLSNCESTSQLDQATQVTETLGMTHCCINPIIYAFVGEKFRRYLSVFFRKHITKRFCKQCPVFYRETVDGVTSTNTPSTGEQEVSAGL
Briefly: Chemotaxis inhibition assay for receptor specificity, HEK293-CCR2B. The following applies: 0.2, 1, 5, 25 μM, 30 min pretreatment. On the procedure:
as §1

Data set [3] deals with T3, CCR7 (Homo sapiens, UniProt P32248).
T3 construct: expressed in transfected cells; host or cells: HEK293, pcDB-CCR7 plasmid made in the authors' laboratory
T3 sequence (P32248 25-378): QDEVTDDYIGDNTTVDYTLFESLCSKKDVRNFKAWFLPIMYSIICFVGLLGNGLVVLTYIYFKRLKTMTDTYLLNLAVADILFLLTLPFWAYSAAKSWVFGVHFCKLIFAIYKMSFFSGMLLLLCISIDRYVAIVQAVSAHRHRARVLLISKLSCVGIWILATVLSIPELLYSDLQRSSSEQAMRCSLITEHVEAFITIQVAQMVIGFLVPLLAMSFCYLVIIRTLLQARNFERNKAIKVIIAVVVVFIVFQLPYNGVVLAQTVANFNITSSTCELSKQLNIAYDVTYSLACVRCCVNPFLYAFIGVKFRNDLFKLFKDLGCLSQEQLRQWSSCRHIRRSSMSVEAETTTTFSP
As to the kind of experiment: Chemotaxis assay for receptor specificity, HEK293-CCR7. The following applies: compound as chemoattractant in lower chamber, 0.2, 1, 5, 25 μM. Here is the method: (§2) HEK293 cells were transfected with different chemokine receptors. Compound 8a with DMSO was diluted to 0.2 mM, 1 mM, 5 mM and 25 mM, and then we used RPMI 1640 medium containing 0.1% BSA for dilution. The final concentration is: 0.2 μM, 1 μM, 5 μM and 25 μM. DMSO was also diluted 1000-fold with 0.1% BSA RPMI 1640 medium. Chemokines was also diluted to an appropriate concentration. The dilutions of Compound 8a, 1‰ DMSO, the corresponding chemokines of different receptors and 0.1% BSA RPMI 1640 medium were placed in the lower chambers (27.5 μl/well). The transfected HEK293 cells were resuspended in the same medium at a density of 1 × 10^6 cells/ml and added to the upper chambers (55 μl/well).

The target in data set [4] is T4, CCR1 (Homo sapiens, UniProt P32246).
T4 construct: expressed in transfected cells; host or cells: HEK293; plasmid gift of Dr. Philip M. Murphy (NIAID, NIH)
T4 sequence (P32246 1-355): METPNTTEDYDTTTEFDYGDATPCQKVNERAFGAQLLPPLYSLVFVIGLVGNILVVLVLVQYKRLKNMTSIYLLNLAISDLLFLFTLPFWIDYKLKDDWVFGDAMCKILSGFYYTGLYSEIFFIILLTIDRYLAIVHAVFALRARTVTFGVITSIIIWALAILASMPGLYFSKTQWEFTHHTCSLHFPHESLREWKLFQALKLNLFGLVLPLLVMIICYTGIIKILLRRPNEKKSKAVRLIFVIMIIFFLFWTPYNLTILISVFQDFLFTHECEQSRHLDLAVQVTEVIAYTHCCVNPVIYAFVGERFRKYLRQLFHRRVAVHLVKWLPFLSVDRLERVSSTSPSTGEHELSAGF
As to the kind of experiment: Chemotaxis inhibition assay for receptor specificity, HEK293-CCR1. The following applies: 0.2, 1, 5, 25 μM, 30 min pretreatment. Here is the method: as §1

The subject of data set [5] is HEK293-CCR4 cells. Briefly: MTT assay. To be noted: 1, 2, 4, 8, 16 μM, till the higher concentration (16 μM), 48 h. On the procedure: pcDI-CCR4-transfected HEK293 cells, at the density of 800 cells /well, were plated overnight in 96-well plates. After plated overnight, different concentrations of compound 22 and compound 8a were added in cells and the final concentrations of these two compounds were: 1 μM, 2 μM, 4 μM, 8 μM and 16 μM. We set four wells for cells in each group which were incubated with each concentration of the compounds, and the cells were cultured for 48 h or 72 h. At 48 h or 72 h, 10 μl of the 5 mM MTT were added in cells and 100 μl of cell lysis buffer were added 4–6 h later. After added cell lysis buffer for an hour, microplate autoreader were used for measuring optical density (OD) of cells at 570 nm, and the ratio of OD in each group and that of DMSO group were valued as cell survival rates of each group.
(Tetrazolium assays rely on reduction of a dye to a coloured formazan, in cell work by metabolically active cells.)

Data set [6] deals with T5, CXCR1 (Homo sapiens, UniProt P25024).
T5 construct: expressed in transfected cells; host or cells: HEK293; plasmid gift of Dr. Philip M. Murphy (NIAID, NIH)
T5 sequence (P25024 1-350): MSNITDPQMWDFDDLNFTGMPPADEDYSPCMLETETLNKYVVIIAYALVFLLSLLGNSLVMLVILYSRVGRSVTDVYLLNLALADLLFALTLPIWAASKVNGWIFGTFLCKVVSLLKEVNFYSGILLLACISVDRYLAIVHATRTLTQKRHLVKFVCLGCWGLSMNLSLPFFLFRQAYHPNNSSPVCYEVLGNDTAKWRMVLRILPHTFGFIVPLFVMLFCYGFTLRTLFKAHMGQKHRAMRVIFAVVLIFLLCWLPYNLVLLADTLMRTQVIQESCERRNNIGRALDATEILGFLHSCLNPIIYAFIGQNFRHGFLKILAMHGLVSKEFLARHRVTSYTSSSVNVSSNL
Briefly: Chemotaxis assay for receptor specificity, HEK293-CXCR1. To be noted: compound as chemoattractant in lower chamber, 0.2, 1, 5, 25 μM. On the procedure: as §2

Regarding `O=C(C1CCCCN1)N1CCN(c2nc(Cl)cc(NCc3ccc(Cl)cc3Cl)n2)CC1` (stereo not drawn) [compound 8a, {4-[4-Chloro-6-(2,4-dichloro-benzylamino)-pyrimidin-2-yl]-piperazin-1-yl}-piperidin-2-yl-methanone], the “inhibition of chemotaxis of HEK293-CCR3 to its ligand” value in data set [1] is recorded as “few influence”. For the same compound, the “inhibition of chemotaxis of HEK293-CCR2B to its ligand” value in data set [2] was “few influence”. For the same compound, the “chemotaxis effect of the compound on HEK293-CCR7” value in data set [3] is given as “didn’t exert chemotaxis effects”. Besides, the “inhibition of chemotaxis of HEK293-CCR1 to its ligand” value in data set [4] is listed as “few influence”. The “cytotoxicity (MTT)” value in data set [5] is recorded as “no obvious cytotoxicity”. Moreover, the “chemotaxis effect of the compound on HEK293-CXCR1” value in data set [6] is on record as “didn’t exert chemotaxis effects”.
